Values after ≈ are worked out from the molar mass of the structure shown. Counter-ions that a name gives are not always drawn.

The test system of the experiment is S. aureus Col (Meth^R) (lac^-). Put plainly: MIC by agar dilution, S. aureus Col (Meth^R) (lac^-). The format is cell-based. The settings on record: Staphylococcus aureus; agar dilution; S. aureus Col (Meth^R) (lac^-); read-out: MIC. In a few lines:
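Agar dilution per NCCLS (1991): two-fold dilutions from 128 μg/mL down to ≤0.25 μg/mL in Mueller-Hinton agar, each level in duplicate. Spots of about 10^4 cfu of log-phase culture; 16-20 h at 35°-36° C. MIC in μg/ml is the lowest concentration inhibiting growth.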
A general note: In agar dilution, organisms are placed on agar that contains the substance at set levels.
For orientation: MIC means the lowest concentration that inhibits growth of the organism. `O=C(Cc1ccccc1)N[C@@H]1C(=O)N2C(C(=O)[O-])=C(Sc3ccc[n+](Cc4ccccc4)c3-c3ccccc3)CS[C@H]12` [Cmpd 83, (7R)-7-[(Phenylacetyl)amino]-3-(2-phenyl-N-benzylpyridin-3-iumthio)-3-cephem-4-carboxylate]: the MIC came out at 4 µg/mL (≈ 6.74 µM).
The same measure for `O=C(Cc1ccc(Cl)cc1)N[C@@H]1C(=O)N2C(C(=O)O)=C(Sc3cccnc3-c3ccccc3)CS[C@H]12` [Cmpd 84, (7R)-7-[(4-Chlorophenylacetyl)amino]-3-(2-phenylpyridin-3-ylthio)-3-cephem-4-carboxylic acid]: 2 µg/mL (≈ 3.72 µM); for `N#CCC(=O)N[C@@H]1C(=O)N2C(C(=O)O)=C(Sc3cccnc3-c3ccccc3)CS[C@H]12` [Cmpd 85, (7R)-7-[(Cyanoacetyl)amino]-3-(2-phenylpyridin-3-ylthio)-3-cephem-4-carboxylic acid]: 4 µg/mL (≈ 8.84 µM); for `Nc1nc(/C(=N/OC2CCCC2)C(=O)N[C@@H]2C(=O)N3C(C(=O)O)=C(Sc4cccnc4-c4ccccc4)CS[C@H]23)cs1` [Cmpd 86, (7R)-7-[(Z)-2-(aminothiazol-4-yl)-2-(cyclopentyloxyimino)acetamido]-3-(2-phenylpyridin-3-ylthio)-3-cephem-4-carboxylic acid]: 8 µg/mL (≈ 12.8 µM).
The same measure for `Nc1nc(/C(=N/OCCF)C(=O)N[C@@H]2C(=O)N3C(C(=O)O)=C(Sc4ccnn4-c4ccccc4)CS[C@H]23)cs1` [Cmpd 90, (7R)-7-[(Z)-2-(aminothiazol-4-yl)-2-(2-fluoroethyloxyimino)acetamido]-3-(1-N-phenylpyrazol-5-ylthio)-3-cephem-4-carboxylic acid]: 8 µg/mL (≈ 13.6 µM).
The same measure for `O=C(Cc1ccccc1)N[C@@H]1C(=O)N2C(C(=O)O)=C(Sc3cnnn3-c3ccccc3)CS[C@H]12` [Cmpd 91, (7R)-7-[(Phenylacetyl)amino]-3-(1-N-phenyl-1,2,3-triazol-5-ylthio)-3-cephem-4-carboxylic acid]: 4 µg/mL (≈ 8.1 µM).
For the compound `Nc1nc(-c2ccccc2)c(SC2=C(C(=O)O)N3C(=O)[C@@H](NC(=O)Cc4ccccc4)[C@H]3SC2)s1` [Cmpd 92, (7R)-7-[(Phenylacetyl)amino]-3-(2-amino-4-phenylthiazol-5-ylthio)-3-cephem-4-carboxylic acid], the MIC came out at 2 µg/mL (≈ 3.81 µM).
In the case of `O=C(Cc1ccccc1)N[C@@H]1C(=O)N2C(C(=O)O)=C(Sc3snnc3-c3ccccc3)CS[C@H]12` [Cmpd 93, (7R)-7-[(Phenylacetyl)amino]-3-(4-phenyl-1,2,3-thiadiazol-5-ylthio)-3-cephem-4-carboxylic acid] it was 2 µg/mL (≈ 3.92 µM).
The same measure for `O=C(Cc1ccccc1)N[C@@H]1C(=O)N2C(C(=O)O)=C(Sc3nnnn3-c3ccccc3)CS[C@H]12` [Cmpd 94, (7R)-7-[(Phenylacetyl)amino]-3-(1-N-phenyltetrazol-5-ylthio)-3-cephem-4-carboxylic acid]: 4 µg/mL (≈ 8.09 µM).
In the case of `O=C(Cc1ccccc1)N[C@@H]1C(=O)N2C(C(=O)O)=C(Sc3ccccc3-c3cnco3)CS[C@H]12` [Cmpd 95, (7R)-7-[(Phenylacetyl)amino]-3-(2-oxazol-5-ylphenylthio)-3-cephem-4-carboxylic acid] it was 4 µg/mL (≈ 8.1 µM).
Regarding `NCc1ccccc1CC(=O)N[C@@H]1C(=O)N2C(C(=O)O)=C(Sc3ccnn3-c3ccccc3)CS[C@H]12` [Cmpd 96, (7R)-7-[((2-aminomethylphenyl)acetyl)amino]-3-(1-N-phenylpyrazol-5-ylthio)-3-cephem-4-carboxylic acid], the MIC is 8 µg/mL (≈ 15.3 µM).
In the case of `Nc1nc(/C(=N/OCCF)C(=O)N[C@@H]2C(=O)N3C(C(=O)O)=C(Sc4ccnn4-c4ccccc4)CS[C@H]23)c(Cl)s1` [Cmpd 98, (7R)-7-[(Z)-2-(2-amino-5-chlorothiazol-4-yl)-2-(2-fluoroethyloxyimino)acetamido]-3-(1-N-phenylpyrazol-5-ylthio)-3-cephem-4-carboxylic acid] it was 2 µg/mL (≈ 3.2 µM); in that of `N=C(N)SCc1ccccc1SC1=C(C(=O)O)N2C(=O)[C@@H](NC(=O)Cc3ccc(O)cc3)[C@H]2SC1` [Cmpd 99, (7R)-7-[((4-Hydroxyphenyl)acetyl)amino]-3-(2-isothiouroniummethylphenylthio)-3-cephem-4-carboxylic acid, inner salt], 4 µg/mL; in that of `N=C(N)SCCc1ccccc1SC1=C(C(=O)O)N2C(=O)[C@@H](NC(=O)Cc3ccccc3)[C@H]2SC1` [Cmpd 100, (7R)-7-[(Phenylacetyl)amino]-3-(2-(2-isothiouronium)ethylphenylthio)-3-cephem-4-carboxylate, inner salt], 4 µg/mL.
In the case of `O=C(Cc1ccccc1)N[C@@H]1C(=O)N2C(C(=O)O)=C(Sc3ccnn3-c3ccccn3)CS[C@H]12` [Cmpd 105, (7R)-7-[(Phenylacetyl)amino]-3-(1-N-(pyridin-2-yl)pyrazol-5-ylthio)-3-cephem-4-carboxylic acid] it was 4 µg/mL (≈ 8.1 µM).
In the case of `CCCCCC(=O)N[C@@H]1C(=O)N2C(C(=O)O)=C(Sc3ccnn3-c3ccccc3)CS[C@H]12` [Cmpd 109, (7R)-7-[(hexanoyl)amino]-3-(1-N-phenylpyrazol-5-ylthio)-3-cephem-4-carboxylic acid] it was 4 µg/mL (≈ 8.46 µM); in that of `O=C(Cc1ccco1)N[C@@H]1C(=O)N2C(C(=O)O)=C(Sc3ccnn3-c3ccccc3)CS[C@H]12` [Cmpd 111, (7R)-7-[(2-furylacetyl)amino]-3-(1-N-phenylpyrazol-5-ylthio)-3-cephem-4-carboxylic acid], 8 µg/mL (≈ 16.6 µM); in that of `O=C(Cc1ccccc1)N[C@@H]1C(=O)N2C(C(=O)O)=C(Sc3ccnn3-c3cccc([N+](=O)[O-])c3)CS[C@H]12` [Cmpd 113, (7R)-7-[(Phenylacetyl)amino]-3-(1-N-(3-nitrophenyl)pyrazol-5-ylthio)-3-cephem-4-carboxylic acid], 4 µg/mL (≈ 7.44 µM).
In the case of `COc1ccc(-n2nccc2SC2=C(C(=O)O)N3C(=O)[C@@H](NC(=O)Cc4ccccc4)[C@H]3SC2)cc1` [Cmpd 114, (7R)-7-[(Phenylacetyl)amino]-3-(1-N-(4-methoxyphenyl)pyrazol-5-ylthio)-3-cephem-4-carboxylic acid], the MIC worked out at 4 µg/mL (≈ 7.65 µM).
In the case of `O=C(Cc1cccs1)N[C@@H]1C(=O)N2C(C(=O)O)=C(Sc3ccnn3-c3ccccc3)CS[C@H]12` [Cmpd 116, (7R)-7-[(2-thienylacetyl)amino]-3-(1-N-phenylpyrazol-5-ylthio)-3-cephem-4-carboxylic acid] it was 4 µg/mL (≈ 8.02 µM); in that of `COc1cccc(-n2nccc2SC2=C(C(=O)O)N3C(=O)[C@@H](NC(=O)Cc4ccccc4)[C@H]3SC2)c1` [Cmpd 117, (7R)-7-[(Phenylacetyl)amino]-3-(1-N-(3-methoxyphenyl)pyrazol-5-ylthio)-3-cephem-4-carboxylic acid], 8 µg/mL (≈ 15.3 µM); in that of `Nc1nnc(SCC(=O)N[C@@H]2C(=O)N3C(C(=O)O)=C(Sc4ccnn4-c4ccccc4)CS[C@H]23)s1` [Cmpd 120], 8 µg/mL (≈ 14.6 µM).
The same measure for `O=C(O)C1=C(Sc2ccnn2-c2ccccc2)CS[C@@H]2[C@H](NC(=O)C(=NO)c3ccco3)C(=O)N12` [Cmpd 121, (7R)-7-[2-(2-furyl)-2-(hydroxyimino)acetamido]-3-(1-N-phenylpyrazol-5-ylthio)-3-cephem-4-carboxylic acid]: 4 µg/mL (≈ 7.82 µM).
As to `O=C(Cc1ccccc1)N[C@@H]1C(=O)N2C(C(=O)O)=C(Sc3ccnn3-c3ccc(F)cc3)CS[C@H]12` [Cmpd 123, (7R)-7-[(Phenylacetyl)amino]-3-(1-N-(4-fluorophenyl)pyrazol-5-ylthio)-3-cephem-4-carboxylic acid], the MIC is 4 µg/mL (≈ 7.83 µM).
The same measure for `N=C(N)SCc1ccccc1SC1=C(C(=O)O)N2C(=O)[C@@H](NC(=O)Cc3ccc(CN)cc3)[C@H]2SC1` [Cmpd 124, (7R)-7-[((4-aminomethylphenyl)acetyl)amino]-3-(2-isothiouroniummethylphenylthio)-3-cephem-4-carboxylate, trifluoroacetic acid salt]: 4 µg/mL; for `CSCC(=O)N[C@@H]1C(=O)N2C(C(=O)O)=C(Sc3ccccc3CSC(=N)NC(=N)N)CS[C@H]12` [Cmpd 126, (7R)-7-[(methylthioacetyl)amino]-3-(2-(N-amidino)isothiouroniummethylphenylthio)-3-cephem-4-carboxylate, inner salt]: 8 µg/mL; for `N=C(N)NCc1ccccc1SC1=C(C(=O)O)N2C(=O)[C@@H](NC(=O)Cc3ccccc3)[C@H]2SC1` [Cmpd 128, (7R)-7-[(Phenylacetyl)amino]-3-(2-guanidiniummethylphenylthio)-3-cephem-4-carboxylate, inner salt]: 8 µg/mL.
In the case of `O=C(Cc1ccccc1)N[C@@H]1C(=O)N2C(C(=O)O)=C(Sc3ccccc3-n3cccn3)CS[C@H]12` [Cmpd 132, (7R)-7-[(Phenylacetyl)amino]-3-(2-(pyrazol-1-yl)phenylthio)-3-cephem-4-carboxylic acid] it was 8 µg/mL (≈ 16.2 µM); in that of `CSCC(=O)N[C@@H]1C(=O)N2C(C(=O)O)=C(Sc3ccccc3CSC(=N)NN)CS[C@H]12` [Cmpd 133, (7R)-7-[(methylthioacetyl)amino]-3-(2-(N-amino)isothiouroniummethylphenylthio)-3-cephem-4-carboxylate, inner salt], 2 to 4 µg/mL.
In the case of `N=C(N)SCc1ccccc1SC1=C(C(=O)O)N2C(=O)[C@@H](NC(=O)CSCCCI)[C@H]2SC1` [Cmpd 134, (7R)-7-[(3-iodoprop-1-ylthioacetyl)amino]-3-(2-isothiouroniummethylphenylthio)-3-cephem-4-carboxylate, inner salt] it was 2 µg/mL.
Regarding `CSCC(=O)N[C@@H]1C(=O)N2C(C(=O)O)=C(Sc3ccccc3CNC(=N)N)CS[C@H]12` [Cmpd 135, (7R)-7-[(Methylthioacetyl)amino]-3-(2-guanidiniummethylphenylthio)-3-cephem-4-carboxylate, inner salt], the MIC came out at 8 µg/mL.
The same measure for `N=C(N)SCc1ccccc1SC1=C(C(=O)O)N2C(=O)[C@@H](NC(=O)/C(=N\O)c3ccccc3)[C@H]2SC1` [Cmpd 136, (7R)-7-[(Z)-2-(Phenyl)-2-(hydroxyimino)acetamido]-3-(2-isothiouroniummethylphenylthio)-3-cephem-4-carboxylate, inner salt]: 2 µg/mL.

These data come from patent publication US5698547A, “Cephalosporin antibiotics” (Microcide Pharmaceuticals, Inc., priority 1995, dated 1997).
